Experimental data reported in US12729377B2, “RNAi agents and compositions for inhibiting expression of angiopoietin-like 3 (ANGPTL3), and methods of use” (Arrowhead Pharmaceuticals, Inc., priority 2017, dated 2026).
In the oligonucleotide strings, read from the 5' end, every base follows the letter of its sugar. An asterisk marks phosphorothioate; unmarked linkages are phosphodiester. Other units and linkages are bracketed, terminal groups are in braces. A string of capitals states the bases alone. {NAG37} = tridentate N-acetyl-galactosamine targeting ligand, structure (NAG37)s; [invAb] = inverted abasic unit; m = 2'-O-methyl; f = 2'-fluoro

Experiments:
ANGPTL3 gene [1] = experiment: Example 4: serum LDL in mice; type: in vivo, C57bl/6 mice
ANGPTL3 gene [2] = experiment: Example 11: dose response, serum HDL in mice; type: in vivo, C57bl/6 mice
Description: To assess the dose response of ANGPTL3 RNAi agent AD05488, six- to eight-week-old female C57bl/6 mice were used. Pre-dose serum samples were taken at day −1 after a four hour fast. At day 1, each mouse was given a single subcutaneous administration of 200 μl containing the respective mg/kg dose of an ANGPTL3 RNAi agent in D5W (dextrose in 5% water), or control (D5W) with no RNAi agent, according to the dosing groups recited in Table 53:
The RNAi agent tested (AD05488) included a modified sequence and an N-acetyl-galactosamine-containing targeting ligand conjugated to the 5′ terminal end of the sense strand. (See Tables 3, 4, and 5 for modified sequences and targeting ligand structures). The injections were performed between the skin and muscle (i.e. subcutaneous injections) into the loose skin over the neck and shoulder area. Four (4) mice in each group were tested (n=4). Serum was collected on days 8, 15, 22, and 29. Mice were fasted for four hours prior to each collection. ANGPTL3 protein levels in serum were measured by ELISA assay (R&D Systems), according to the manufacturer's recommendations. Triglycerides, total cholesterol, high-density lipoprotein (HDL), and low-density lipoprotein (LDL) in serum were measured on a Cobas® Integra 400 (Roche Diagnostics), according to the manufacturer's recommendations.
The ANGPTL3 protein levels, triglyceride levels, total cholesterol levels, HDL levels, and LDL levels for each animal were normalized. For normalization, the level of ANGPTL3 protein, triglyceride, HDL, and total cholesterol, respectively, for each animal at a time point, was divided by the pre-treatment level of expression in that animal (in this case at day −1) to determine the ratio of expression “normalized to pre-treatment.” Expression at a specific time point was then normalized to the D5W control group by dividing the “normalized to pre-treatment” ratio for an individual animal by the mean “normalized to pretreatment” ratio of all mice in the D5W control group.

ANGPTL3 gene [3] = experiment: Example 12: serum HDL in LDLR knockout mice; type: in vivo, LDLR KO mice; conditions: 3.0 mg/kg sc day 1
Text: To evaluate the effect of RNAi agent administration in a disease model, mice having a genetic mutation for the LDL receptor (referred to herein as LDLR KO mice) were commercially obtained (The Jackson Laboratory). The LDLR KO mice are homozygous for the Ldlr^tm1Her mutation, and have elevated serum cholesterol levels, particularly when placed on a high fat diet. For three weeks prior to the onset of the study, thirty-nine (39) LDLR KO mice were placed on a high fat diet (Teklad Custom Diets TD.88137). An additional eight (8) LDLR KO mice were placed on a normal chow diet over the same three-week period. Pre-dose serum samples were taken on day −15 and day −1 after a four hour fast. At day 1, each mouse was given a single subcutaneous administration of 200 μl/30 g animal body weight containing the respective mg/kg dose of an ANGPTL3 RNAi agent in D5W (dextrose in 5% water), control (D5W) with no RNAi agent, or a control RNAi agent that included a nucleotide sequence designed to target the Hepatitis B Virus (HBV) genome. A second injection of the same formulation was administered to the animals on day 29. The dosing regimen for the study is recited in the following Table 60:
Each mouse remained on its respective diet through the duration of study. The RNAi agent tested (AD05488) included a modified sequence and an N-acetyl-galactosamine-containing targeting ligand conjugated to the 5′ terminal end of the sense strand. (See Tables 3, […] modified sequences and targeting ligand structures). The injections were performed between the skin and muscle (i.e. subcutaneous injections) into the loose skin over the neck and shoulder area. Serum was collected on days 8, 15, 22, 29 (pre-second dose), 36, 43, 50, and 57. LDLR KO mice were fasted for four hours prior to each collection. On day 15, four (4) LDLR KO mice from Groups 1, 2, and 3 (i.e., the groups being administered the high fat “Western” diet) were sacrificed after serum collection, and on day 29, an additional four (4) LDLR KO mice from Groups 1, 2, and 3 were sacrificed after serum collection, for the purpose of performing mRNA assessments.
ANGPTL3 protein levels in serum were measured by ELISA assay (R&D Systems), according to the manufacturer's recommendations. Triglycerides, total cholesterol, high-density lipoprotein (HDL), and low-density lipoprotein (LDL) in serum were measured on a Cobas® Integra 400 (Roche Diagnostics), according to the manufacturer's recommendations.
The ANGPTL3 protein levels, triglyceride levels, total cholesterol levels, HDL levels, and LDL levels for each animal were normalized. For normalization, respective levels of ANGPTL3 protein, TG, total cholesterol, HDL, or LDL for each animal at a time point was divided by the average pre-treatment level of expression in that animal (in this case the average of day −15 and day −1) to determine the ratio of expression “normalized to pre-treatment.”
Expression at a specific time point was then normalized to the D5W control group that was administered the same diet (i.e., either the high fat “Western” diet or the normal chow-fed diet) by dividing the “normalized to pre-treatment” ratio for an individual animal by the mean “normalized to pretreatment” ratio of all mice in the D5W control group on the respective same diet, resulting in expression for each time point normalized to that in the control group.

AD05308: RNAi agent duplex: antisense AM07003-AS, sense AM07002-SS (chain 1 mU*fG*mU*fUmGfAmAfUmUfAmAfUmGfUmCfCmAfUmGfG*mA; chain 2 {NAG37}*[invAb]*mUmCmCmAmUmGmGmAfCfAfUmUmAmAmUmUmCmAmAmCmA*[invAb])
Avg LDL, normalized to pre-treatment and control (ANGPTL3 gene [1]; Day 22, 0.5 mg/kg single SC injection on day 1, n=3): 1.209
Avg LDL, normalized to pre-treatment and control (ANGPTL3 gene [1]; Day 29, 0.5 mg/kg single SC injection on day 1, n=3): 1.251
Avg LDL, normalized to pre-treatment and control (ANGPTL3 gene [1]; Day 43, 0.5 mg/kg single SC injection on day 1, n=3): 1.375

AD05488: RNAi agent duplex: antisense AM07235-AS, sense AM07234-SS (antisense mU*fA*mC*fUmGfAmUfCmAfAmAfUmAfUmGfUmUfGmAfG*mC; sense {NAG37}*[invAb]*mGmCmUmCmAmAmCmAfUfAfUmUmUmGmAmUmCmAmGmUmA*[invAb])
Avg HDL Normalized to Pre-Treatment and Control (ANGPTL3 gene [2]; 0.05 mg/kg single sc day 1, Day 8): 0.851
Avg HDL Normalized to Pre-Treatment and Control (ANGPTL3 gene [2]; 0.05 mg/kg single sc day 1, Day 15): 1.052
Avg HDL Normalized to Pre-Treatment and Control (ANGPTL3 gene [2]; 0.05 mg/kg single sc day 1, Day 22): 0.982
Avg HDL Normalized to Pre-Treatment and Control (ANGPTL3 gene [2]; 0.05 mg/kg single sc day 1, Day 29): 0.894
Avg HDL Normalized to Pre-Treatment and Control (ANGPTL3 gene [2]; 0.1 mg/kg single sc day 1, Day 8): 0.807
Avg HDL Normalized to Pre-Treatment and Control (ANGPTL3 gene [2]; 0.1 mg/kg single sc day 1, Day 15): 0.950
Avg HDL Normalized to Pre-Treatment and Control (ANGPTL3 gene [2]; 0.1 mg/kg single sc day 1, Day 22): 0.806
Avg HDL Normalized to Pre-Treatment and Control (ANGPTL3 gene [2]; 0.1 mg/kg single sc day 1, Day 29): 0.910
Avg HDL Normalized to Pre-Treatment and Control (ANGPTL3 gene [2]; 0.5 mg/kg single sc day 1, Day 8): 0.727
Avg HDL Normalized to Pre-Treatment and Control (ANGPTL3 gene [2]; 0.5 mg/kg single sc day 1, Day 15): 0.876
Avg HDL Normalized to Pre-Treatment and Control (ANGPTL3 gene [2]; 0.5 mg/kg single sc day 1, Day 22): 0.906
Avg HDL Normalized to Pre-Treatment and Control (ANGPTL3 gene [2]; 0.5 mg/kg single sc day 1, Day 29): 0.897
Avg HDL Normalized to Pre-Treatment and Control (ANGPTL3 gene [2]; 1.0 mg/kg single sc day 1, Day 8): 0.575
Avg HDL Normalized to Pre-Treatment and Control (ANGPTL3 gene [2]; 1.0 mg/kg single sc day 1, Day 15): 0.785
Avg HDL Normalized to Pre-Treatment and Control (ANGPTL3 gene [2]; 1.0 mg/kg single sc day 1, Day 22): 0.839
Avg HDL Normalized to Pre-Treatment and Control (ANGPTL3 gene [2]; 1.0 mg/kg single sc day 1, Day 29): 0.888
Avg HDL Normalized to Pre-Treatment and Control (ANGPTL3 gene [2]; 2.5 mg/kg single sc day 1, Day 8): 0.618
Avg HDL Normalized to Pre-Treatment and Control (ANGPTL3 gene [2]; 2.5 mg/kg single sc day 1, Day 15): 0.787
Avg HDL Normalized to Pre-Treatment and Control (ANGPTL3 gene [2]; 2.5 mg/kg single sc day 1, Day 22): 0.782
Avg HDL Normalized to Pre-Treatment and Control (ANGPTL3 gene [2]; 2.5 mg/kg single sc day 1, Day 29): 0.701
Avg HDL Normalized to Pre-Treatment and Control (ANGPTL3 gene [2]; 5.0 mg/kg single sc day 1, Day 8): 0.534
Avg HDL Normalized to Pre-Treatment and Control (ANGPTL3 gene [2]; 5.0 mg/kg single sc day 1, Day 15): 0.717
Avg HDL Normalized to Pre-Treatment and Control (ANGPTL3 gene [2]; 5.0 mg/kg single sc day 1, Day 22): 0.760
Avg HDL Normalized to Pre-Treatment and Control (ANGPTL3 gene [2]; 5.0 mg/kg single sc day 1, Day 29): 0.759
Avg HDL Normalized to Pre-Treatment and Control (Diet Matched) (ANGPTL3 gene [3]; High Fat Diet, Day 8): 0.693
Avg HDL Normalized to Pre-Treatment and Control (Diet Matched) (ANGPTL3 gene [3]; High Fat Diet, Day 15): 0.735
Avg HDL Normalized to Pre-Treatment and Control (Diet Matched) (ANGPTL3 gene [3]; High Fat Diet, Day 22): 0.716
Avg HDL Normalized to Pre-Treatment and Control (Diet Matched) (ANGPTL3 gene [3]; High Fat Diet, Day 29 (pre-second dose)): 0.711
Avg HDL Normalized to Pre-Treatment and Control (Diet Matched) (ANGPTL3 gene [3]; Normal Diet, Day 8): 0.645
Avg HDL Normalized to Pre-Treatment and Control (Diet Matched) (ANGPTL3 gene [3]; Normal Diet, Day 15): 0.745
Avg HDL Normalized to Pre-Treatment and Control (Diet Matched) (ANGPTL3 gene [3]; Normal Diet, Day 22): 0.766
Avg HDL Normalized to Pre-Treatment and Control (Diet Matched) (ANGPTL3 gene [3]; Normal Diet, Day 29 (pre-second dose)): 0.737
